Columns and labels:
Type in all cases: in vivo
[1] = test system: laser-induced glaucomatous eyes in cynomolgus monkeys; assay: Intraocular pressure after single topical dose in glaucomatous monkey eyes; details: for Intraocular Pressure (treated - baseline) (mean ± SEM) / relative activity in decreasing IOP among the compounds tested: glaucomatous monkey eyes; for maximum reduction in IOP (mean SEM) / time for which IOP was reduced (p<0.05): single 25 μl dose of 0.1 percent, laser-induced glaucomatous eyes, cynomolgus monkeys; for relative activity in decreasing IOP among the compounds tested: 0.1 percent; for maximum reduction in IOP (mean±SEM) as compared to baseline / time for which IOP was reduced (p<0.005): single 25 μl dose
Description: Experiments were performed to evaluate the effects of single dose administration of 8-iso PGE2 an IOP in normal (“N”) and glaucomatous (“G”) monkey eyes, and to determine the mechanism by which 8-iso PGE2 alters IOP in N monkey eyes, when applied topically. A single 25 μl dose study was performed in 6 N and 8 G monkeys. IOP and pupil sizes were measured before and at 0 hr, 0.5 hr and then hourly for a total of 6 hrs after 0.05% or 0.1% drug concentrations were administered. Tonographic outflow facility (“C”) and fluorophotometric aqueous humor flow (F) were determined in 6 N monkeys before and after unilateral application of 25 μl of 0.1% 8-iso PGE2. In 8 G monkey eyes, 8-isoPGE2 reduced IOP (p<0.005) up to 2 hrs or 5 hrs following administration of the 0.05% or 0.1% concentration, respectively. The maximum reduction in IOP was 4.6±0.8 (mean±SEM)mm Hg (0.05%) and 6.6±0.8 mm Hg (0.1%), as compared to baseline measurements. After topical application of 8-iso PGE2 the IOP was lower (p<0.01) in the treated eyes of 6 N monkeys for 4 hrs, with a maximum difference of 3.2±0.2 mmHg, as compared to the fellow contralateral control eyes. The pupil size was smaller (p<0.01) for 4 hrs, up to 1.0±0.2 mm. Compared with vehicle-treated contralateral control eyes, C was greater (p<0.005) by 48% at 2 hr after a single dose of 0.1% 8-iso PGE2. F was unchanged (p<0.10) over a period of 4 hrs after drug administration. […] Because of the individual variability in laser-induced glaucomatous monkey eyes, the IOP and facility measurements are expressed in the table as ratios (value of the drug-treated eye+the value of the vehicle-treated eye). The ratios were calculated from the values of the same glaucomatous monkey eye determined immediately prior to administration of the drug or the vehicle (time 0 hrs.), and the values at 2 hours after administration of the drug or vehicle. […] Thus the mechanism of lowering IOP by 8-iso PGE2 in both normal and glaucomatous eyes is primarily due to an increase in aqueous humor trabecular outflow. IOP was measured one hour before and at intervals up to six hours after a single dose of 8-iso PGE, (the 13, 14 dihydro derivative of 8-iso PGE2), 8-iso PGE2, or 8-iso PGF2α in laser-induced glaucomatous eyes in cynomolgus monkeys (wherein only one eye is rendered glaucomatous and the other serves as a control). Following one day of baseline IOP measurement, a single 25 μl dose of either (i) 0.1 percent 8-iso PGE1, or (ii) 0.1 percent 8-iso PGE2, or (iii) 0.1 percent 8-iso PGF2α, was topically applied to the glaucomatous eye in groups of 4 or 8 monkeys. […] The maximum reduction in IOP was 5.3±0.8 (mean SEM) mm Hg at 2 hours after dosing 8-iso PGE2 (0.1 percent) reduced IOP (p<0.05) for 5 hours with a maximum reduction in IOP of 6.6±0.8 mm Hg at 2 hours after dosing (n=8). […] Based on these studies, of the compounds tested, 8-iso PGE2 appears to have the greatest and 8-iso PGF2α, the least activity in decreasing IOP in glaucomatous monkey eyes.

normal monkey eyes [2] = assay: Pupil size after topical application in normal monkeys
Description: (§1) Experiments were performed to evaluate the effects of single dose administration of 8-iso PGE2 an IOP in normal (“N”) and glaucomatous (“G”) monkey eyes, and to determine the mechanism by which 8-iso PGE2 alters IOP in N monkey eyes, when applied topically. A single 25 μl dose study was performed in 6 N and 8 G monkeys. IOP and pupil sizes were measured before and at 0 hr, 0.5 hr and then hourly for a total of 6 hrs after 0.05% or 0.1% drug concentrations were administered. Tonographic outflow facility (“C”) and fluorophotometric aqueous humor flow (F) were determined in 6 N monkeys before and after unilateral application of 25 μl of 0.1% 8-iso PGE2. In 8 G monkey eyes, 8-isoPGE2 reduced IOP (p<0.005) up to 2 hrs or 5 hrs following administration of the 0.05% or 0.1% concentration, respectively. The maximum reduction in IOP was 4.6±0.8 (mean±SEM)mm Hg (0.05%) and 6.6±0.8 mm Hg (0.1%), as compared to baseline measurements. After topical application of 8-iso PGE2 the IOP was lower (p<0.01) in the treated eyes of 6 N monkeys for 4 hrs, with a maximum difference of 3.2±0.2 mmHg, as compared to the fellow contralateral control eyes. The pupil size was smaller (p<0.01) for 4 hrs, up to 1.0±0.2 mm. Compared with vehicle-treated contralateral control eyes, C was greater (p<0.005) by 48% at 2 hr after a single dose of 0.1% 8-iso PGE2. […]

glaucomatous monkey eyes = assay: Outflow facility in glaucomatous monkey eyes; details: 0.1%, 8 glaucomatous monkey eyes
Description: Because of the individual variability in laser-induced glaucomatous monkey eyes, the IOP and facility measurements are expressed in the table as ratios (value of the drug-treated eye+the value of the vehicle-treated eye). The ratios were calculated from the values of the same glaucomatous monkey eye determined immediately prior to administration of the drug or the vehicle (time 0 hrs.), and the values at 2 hours after administration of the drug or vehicle. […] Thus the mechanism of lowering IOP by 8-iso PGE2 in both normal and glaucomatous eyes is primarily due to an increase in aqueous humor trabecular outflow.

normal monkey eyes [3] = assay: Tonographic outflow facility (C) in normal monkeys
Description: Experiments were performed to evaluate the effects of single dose administration of 8-iso PGE2 an IOP in normal (“N”) and glaucomatous (“G”) monkey eyes, and to determine the mechanism by which 8-iso PGE2 alters IOP in N monkey eyes, when applied topically. A single 25 μl dose study was performed in 6 N and 8 G monkeys. […] In 8 G monkey eyes, 8-isoPGE2 reduced IOP (p<0.005) up to 2 hrs or 5 hrs following administration of the 0.05% or 0.1% concentration, respectively. The maximum reduction in IOP was 4.6±0.8 (mean±SEM)mm Hg (0.05%) and 6.6±0.8 mm Hg (0.1%), as compared to baseline measurements. After topical application of 8-iso PGE2 the IOP was lower (p<0.01) in the treated eyes of 6 N monkeys for 4 hrs, with a maximum difference of 3.2±0.2 mmHg, as compared to the fellow contralateral control eyes. The pupil size was smaller (p<0.01) for 4 hrs, up to 1.0±0.2 mm. […] F was unchanged (p<0.10) over a period of 4 hrs after drug administration.

normal monkey eyes [4] = assay: Fluorophotometric aqueous humor flow (F) in normal monkeys; details: 6 normal monkeys, over 4 hrs after 25 μl of 0.1%
Description: as §1

normal monkey eyes [5] = assay: Intraocular pressure after single topical dose in normal monkey eyes
Description: Experiments were performed to evaluate the effects of single dose administration of 8-iso PGE2 an IOP in normal (“N”) and glaucomatous (“G”) monkey eyes, and to determine the mechanism by which 8-iso PGE2 alters IOP in N monkey eyes, when applied topically. A single 25 μl dose study was performed in 6 N and 8 G monkeys. […] Tonographic outflow facility (“C”) and fluorophotometric aqueous humor flow (F) were determined in 6 N monkeys before and after unilateral application of 25 μl of 0.1% 8-iso PGE2. In 8 G monkey eyes, 8-isoPGE2 reduced IOP (p<0.005) up to 2 hrs or 5 hrs following administration of the 0.05% or 0.1% concentration, respectively. The maximum reduction in IOP was 4.6±0.8 (mean±SEM)mm Hg (0.05%) and 6.6±0.8 mm Hg (0.1%), as compared to baseline measurements. After topical application of 8-iso PGE2 the IOP was lower (p<0.01) in the treated eyes of 6 N monkeys for 4 hrs, with a maximum difference of 3.2±0.2 mmHg, as compared to the fellow contralateral control eyes. The pupil size was smaller (p<0.01) for 4 hrs, up to 1.0±0.2 mm. Compared with vehicle-treated contralateral control eyes, C was greater (p<0.005) by 48% at 2 hr after a single dose of 0.1% 8-iso PGE2. F was unchanged (p<0.10) over a period of 4 hrs after drug administration.

monkey eyes = assay: Ocular side effects after topical dosing in monkey eyes; details: eyes treated with the 0.1% concentration
Description: as §1

[6] = 0.1%, 2 hours after treatment, 6 normal monkeys (Table 1A)
[7] = 0.005%, 6 normal monkeys, 1 hour after treatment
[8] = 0.005%, 1 hour after treatment, 6 normal monkeys (Table 1B)

CCCCC[C@H](O)/C=C/[C@H]1[C@H](O)CC(=O)[C@H]1CCCCCCC(=O)O [8-iso PGE1, 8-iso, 5,6 dihydro prostaglandin E2]
Intraocular Pressure (treated - baseline) (mean ± SEM) ([1]; 0.1%, 1 hr): −3.3 ± 1.3 mm Hg
Intraocular Pressure (treated - baseline) (mean ± SEM) ([1]; 0.1%, 2 hr): −5.3 ± 0.8 mm Hg
Intraocular Pressure (treated - baseline) (mean ± SEM) ([1]; 0.1%, 4 hr): −2.3 ± 0.5 mm Hg
Intraocular Pressure (treated - baseline) (mean ± SEM) ([1]; 0.1%, 6 hr): −1.3 ± 0.9 mm Hg
maximum reduction in IOP (mean SEM) [1]: 5.3±0.8 mm Hg
time for which IOP was reduced (p<0.05) [1]: up to four

CCCCC[C@H](O)/C=C/[C@H]1[C@H](O)CC(=O)[C@H]1C/C=C\CCCC(=O)O [8-iso PGE2, prosta-5,13-dien-1-oic acid, 11,15-dihydroxy-9-oxo, (5Z, 8β, 11α, 13E,15S)]
reduction in pupil size (normal monkey eyes [2]): up to 1.0±0.2 mm
time for which pupil size was smaller (p<0.01) (normal monkey eyes [2]): 4 h
Outflow facility response ratio (drug-treated/vehicle treated) (glaucomatous monkey eyes; 2 hr): 1.445 ±
% change by drug in outflow facility (glaucomatous monkey eyes; 2 hr vs 0 hr): 38.8%
increase of outflow facility in normal monkey eye (normal monkey eyes [3]; [6]): 43.1%
outflow facility C greater compared with vehicle-treated contralateral control eyes (p<0.005) (normal monkey eyes [3]; 6 normal monkeys, 2 hr after single 25 μl dose of 0.1%): 48%
aqueous humor flow F change (normal monkey eyes [4]): unchanged
Intraocular Pressure Mean ± SEM, treated eyes (drug) (normal monkey eyes [5]; 0.1%, 6 normal monkeys, 2 hours after treatment): 13.0 ± 0.7 mmHg
lowering of IOP in normal monkey eye (normal monkey eyes [5]; [6]): 20.3%
maximum difference in IOP as compared to fellow contralateral control eyes (normal monkey eyes [5]; 6 normal monkeys, topical application): 3.2±0.2 mmHg
time for which IOP was lower (p<0.01) in treated eyes (normal monkey eyes [5]; 6 normal monkeys, topical application, vs fellow contralateral control eyes): 4 h
Intraocular Pressure response ratio (drug-treated/vehicle-treated) ([1]; 0.1%, 8 glaucomatous monkey eyes, 2 hr): 0.843 ±
% change by drug in intraocular pressure (decrease) ([1]; 0.1%, 8 glaucomatous monkey eyes, 2 hr vs 0 hr): 13.8%
Intraocular Pressure (treated - baseline) (mean ± SEM) ([1]; 0.1%, 1 hr): −4.5 ± 0.9 mm Hg
Intraocular Pressure (treated - baseline) (mean ± SEM) ([1]; 0.1%, 2 hr): −6.6 ± 0.8 mm Hg
Intraocular Pressure (treated - baseline) (mean ± SEM) ([1]; 0.1%, 4 hr): −2.9 ± 0.6 mm Hg
Intraocular Pressure (treated - baseline) (mean ± SEM) ([1]; 0.1%, 6 hr): −1.2 ± 1.2 mm Hg
relative activity in decreasing IOP among the compounds tested [1]: greatest
maximum reduction in IOP (mean±SEM) as compared to baseline ([1]; 8 glaucomatous monkey eyes, 0.05%): 4.6±0.8 mm Hg
time for which IOP was reduced (p<0.005) ([1]; 8 glaucomatous monkey eyes, 0.05% concentration): up to 2 hrs
maximum reduction in IOP (mean±SEM) as compared to baseline ([1]; 8 glaucomatous monkey eyes, 0.1%): 6.6±0.8 mm Hg
time for which IOP was reduced (p<0.005) ([1]; 8 glaucomatous monkey eyes, 0.1% concentration): ≤ 5 h
maximum reduction in IOP (mean SEM) [1]: 6.6±0.8 mm Hg
time for which IOP was reduced (p<0.05) [1]: 5 h
ocular side effects (monkey eyes): Mild eyelid edema, conjunctival edema, hyperemia, and discharge appeared in some eyes

CCCCC[C@H](O)/C=C/[C@@H]1[C@H](C/C=C\CCCC(=O)O)[C@@H](O)C[C@H]1O [8-iso PGF2α, prosta-5,13-dien-1-oic acid, 9, 11, 15-trihydroxy-, (5Z, 8β, 9α, 11α, 13E, 15S)-]
Intraocular Pressure (treated - baseline) (mean ± SEM) ([1]; 0.1%, 1 hr): −3.3 ± 0.8 mm Hg
Intraocular Pressure (treated - baseline) (mean ± SEM) ([1]; 0.1%, 2 hr): −1.8 ± 1.1 mm Hg
Intraocular Pressure (treated - baseline) (mean ± SEM) ([1]; 0.1%, 4 hr): −0.8 ± 1.7 mm Hg
Intraocular Pressure (treated - baseline) (mean ± SEM) ([1]; 0.1%, 6 hr): 0.3 ± 0.5 mm Hg
relative activity in decreasing IOP among the compounds tested [1]: least
maximum reduction in IOP (mean SEM) [1]: 3.3±0.9 mm Hg
time for which IOP was reduced (p<0.05) [1]: only at 1 hour

CC(C)OC(=O)CCC/C=C\C[C@@H]1[C@@H](CC[C@@H](O)CCc2ccccc2)[C@H](O)C[C@@H]1O [latanoprost, reference compound]
Outflow Facility Mean ± SEM, treated eyes (drug) (normal monkey eyes [3]; [7]): 0.76 ± 0.08 μl/min/mmHg
effect on outflow facility in normal monkey eye (normal monkey eyes [3]; [8]): not significant effect
Intraocular Pressure Mean ± SEM, treated eyes (drug) (normal monkey eyes [5]; [7]): 13.2 ± 0.7 mmHg
lowering of IOP in normal monkey eye (normal monkey eyes [5]; [8]): 10.8%

Reference: patent USRE39609E1, “8-iso-prostaglandins for glaucoma therapy” (Mount Sinai School of Medicine of New York University, priority 1997, dated 2007)
